Patent publication US12110299B2, “Thiazole derivatives and pharmaceutically acceptable salts thereof” (YUNGJIN PHARM. CO., LTD., priority 2018, dated 2024)

Columns and labels:
[1] = test system: MDA-MB-468 cells; experiment: Anti-proliferative effect on MDA-MB-468 cells, IC50 (MTT); format: cell-based; settings: Homo sapiens, MDA-MB-468, 72 h
Procedure: The compounds of the present invention were tested at different concentrations (from 1000 nM to 1 nM) to assess their ability for inhibiting the proliferation of MDAMB-468 cells. Cells were cultivated in RPMI 1640 (Welgene)+10% FBS (Gibco)+1% penicillin/streptomycin (Gibco) and cultured at 37° C. in a humidified chamber in the presence of 5% C02.
MDA-MB-468 cells cultured in 96-well cell culture plates were treated with the compounds of the present invention and incubated for 72 hours.

[2] = test system: HepG2 cells; experiment: HepG2 cell viability assay (CCK-8); format: cell-based, human; settings: Homo sapiens, HepG2, 72 h
Procedure: The ability to inhibit the proliferation of HepG2 cells, which are human hepatocellular carcinoma cells, was measured through the in vitro cell viability assay. Cells were cultured at 37° C. in a humidified condition in the presence of 5% CO2 using a culture medium of MEM (Welgene)+10% FBS (Gibco)+1% penicillin/streptomycin (Gibco). […] Cell viability was measured by CCK-8 method using tetrazolium salt, and the ability of the compounds according to the present invention to inhibit cancer cell proliferation was calculated.

Structure (SMILES)	IC50 [1] [nM]	IC50 [2] [nM]
C[C@H](C(=O)Nc1ncc(C(F)(F)F)s1)c1cccc(-c2cnc(NC(=O)/C=C/CN3CCC3)cn2)c1 [Example 103, (S,E)-4-(azetidin-1-yl)-N-(5-(3-(1-oxo-1-((5-(trifluoromethyl)thiazol-2-yl)amino)propan-2-yl)phenyl)pyrazin-2-yl)but-2-enamide]	68	14
C[C@H](C(=O)Nc1ncc(C2CCC2)s1)c1cccc(-c2cnc(NC(=O)/C=C/CN(C)C)cn2)c1 [Example 104, (S,E)-N-(5-(3-(1-((5-cyclobutylthiazol-2-yl)amino)-1-oxopropan-2-yl)phenyl)pyrazin-2-yl)-4-(dimethylamino)but-2-enamide]	44	8
C[C@H](C(=O)Nc1ncc(C(F)(F)F)s1)c1cccc(-c2cnc(NC(=O)/C=C/CN(C)C)cn2)c1 [Example 81, (S,E)-4-(dimethylamino)-N-(5-(3-(1-oxo-1-((5-(trifluoromethyl)thiazol-2-yl)amino)propan-2-yl)phenyl)pyrazin-2-yl)but-2-enamide]	39	11
C[C@H](C(=O)Nc1ncc(C(F)(F)F)s1)c1cccc(-c2cnc(NC(=O)/C=C/CN3CCOCC3)cn2)c1 [Example 92, (S,E)-4-morpholino-N-(5-(3-(1-oxo-1-((5-(trifluoromethyl)thiazol-2-yl)amino)propan-2-yl)phenyl)pyrazin-2-yl)but-2-enamide]	52	74
C[C@H](C(=O)Nc1ncc(C(F)(F)F)s1)c1cccc(-c2cnc(NC(=O)/C=C/CN3CC4CC3CO4)cn2)c1 (stereo partly drawn) [Example 96, (E)-4-(2-oxa-5-azabicyclo[2.2.1]heptan-5-yl)-N-(5-(3-((S)-1-oxo-1-((5-(trifluoromethyl)thiazol-2-yl)amino)propan-2-yl)phenyl)pyrazin-2-yl)but-2-enamide]	68	19
C[C@H](C(=O)Nc1ncc(Cl)s1)c1cccc(-c2cnc(NC(=O)/C=C/CN(C)C)cn2)c1 [Example 93, (S,E)-N-(5-(3-(1-((5-chlorothiazol-2-yl)amino)-1-oxopropan-2-yl)phenyl)pyrazin-2-yl)-4-(dimethylamino)but-2-enamide]	38	21
C[C@H](C(=O)Nc1ncc(C(F)(F)F)s1)c1cccc(-c2cnc(NC(=O)/C=C/CN3CCCC3)cn2)c1 [Example 102, (S,E)-N-(5-(3-(1-oxo-1-((5-(trifluoromethyl)thiazol-2-yl)amino)propan-2-yl)phenyl)pyrazin-2-yl)-4-(pyrrolidin-1-yl)but-2-enamide]	57	13
C[C@H](C(=O)Nc1ncc(C(F)(F)F)s1)c1cccc(-c2cnc(NC(=O)/C=C/CN(C)C)c(F)c2)c1 [Example 99, (S,E)-4-(dimethylamino)-N-(3-fluoro-5-(3-(1-oxo-1-((5-(trifluoromethyl)thiazol-2-yl)amino)propan-2-yl)phenyl)pyridin-2-yl)but-2-enamide]	23	5
CC(C(=O)Nc1ncc(C(F)(F)F)s1)c1cncc(-c2cnc(NC(=O)/C=C/CN3CC4CC3CO4)cn2)c1 (centres unmarked) [Example 83, (E)-4-(2-oxa-5-azabicyclo[2.2.1]heptan-5-yl)-N-(5-(5-(1-oxo-1-((5-(trifluoromethyl)thiazol-2-yl)amino)propan-2-yl)pyridin-3-yl)pyrazin-2-yl)but-2-enamide]	21	3
CC(C(=O)Nc1ncc(C(F)(F)F)s1)c1cncc(-c2cnc(NC(=O)/C=C/CN3CCOCC3)cn2)c1 (centres unmarked) [Example 74, (E)-4-morpholino-N-(5-(5-(1-oxo-1-((5-(trifluoromethyl)thiazol-2-yl)amino)propan-2-yl)pyridin-3-yl)pyrazin-2-yl)but-2-enamide]	65	
COc1cc(-c2cccc([C@H](C)C(=O)Nc3ncc(C(F)(F)F)s3)c2)cnc1NC(=O)/C=C/CN(C)C [Example 100, (S,E)-4-(dimethylamino)-N-(3-methoxy-5-(3-(1-oxo-1-((5-(trifluoromethyl)thiazol-2-yl)amino)propan-2-yl)phenyl)pyridin-2-yl)but-2-enamide]	56	8
C=CC(=O)Nc1ccc(-c2cncc(C(C)C(=O)Nc3ncc(C(F)(F)F)s3)c2)cn1 (centres unmarked) [Example 82, N-(5′-(1-oxo-1-((5-(trifluoromethyl)thiazol-2-yl)amino)propan-2-yl)-[3,3′-bipyridin]-6-yl)acrylamide]	32	4

Continued, values first:

IC50 [1] [nM]	IC50 [2] [nM]	Structure (SMILES)
47	18	CCc1cnc(NC(=O)C(C)c2cncc(-c3cnc(NC(=O)/C=C/CN(C)C)c(C#N)c3)c2)s1 (centres unmarked) [Example 137, (E)-N-(5-cyano-5′-(1-((5-ethylthiazol-2-yl)amino)-1-oxopropan-2-yl)-[3,3′-bipyridin]-6-yl)-4-(dimethylamino)but-2-enamide]
47		COC[C@@H]1CCCN1C/C=C/C(=O)Nc1cnc(-c2cccc([C@H](C)C(=O)Nc3ncc(C(F)(F)F)s3)c2)cn1 [Example 118, (E)-4-((S)-2-(methoxymethyl)pyrrolidin-1-yl)-N-(5-(3-((S)-1-oxo-1-((5-(trifluoromethyl)thiazol-2-yl)amino)propan-2-yl)phenyl)pyrazin-2-yl)but-2-enamide]
75	12	C[C@H](C(=O)Nc1ncc(C(F)(F)F)s1)c1cccc(-c2cnc(NC(=O)/C=C/CN3CC[C@@H](F)C3)cn2)c1 [Example 115, (E)-4-((R)-3-fluoropyrrolidin-1-yl)-N-(5-(3-((S)-1-oxo-1-((5-(trifluoromethyl)thiazol-2-yl)amino)propan-2-yl)phenyl)pyrazin-2-yl)but-2-enamide]
31	4.6	CC(C(=O)Nc1ncc(C(F)(F)F)s1)c1cncc(-c2cnc(NC(=O)/C=C/CN(C)C)c(C#N)c2)c1 (centres unmarked) [Example 108, (E)-N-(5-cyano-5′-(1-oxo-1-((5-(trifluoromethyl)thiazol-2-yl)amino)propan-2-yl)-[3,3′-bipyridin]-6-yl)-4-(dimethylamino)but-2-enamide]
	3.1	CC(C(=O)Nc1ncc(C(F)(F)F)s1)c1cncc(-c2ccc(NC(=O)/C=C/CN(C)C)nc2)c1 (centres unmarked) [Example 107, (E)-4-(dimethylamino)-N-(5′-(1-oxo-1-((5-(trifluoromethyl)thiazol-2-yl)amino)propan-2-yl)-[3,3′-bipyridin]-6-yl)but-2-enamide]
40		C=CC(=O)Nc1ncc(-c2cccc([C@H](C)C(=O)Nc3ncc(C(F)(F)F)s3)c2)cc1C#N [Example 124, (S)-N-(3-cyano-5-(3-(1-oxo-1-((5-(trifluoromethyl)thiazol-2-yl)amino)propan-2-yl)phenyl)pyridin-2-yl)acrylamide]
34	38	CCc1cnc(NC(=O)[C@@H](C)c2cccc(-c3cnc4c(c3)CCN4C(=O)/C=C/CN(C)C)c2)s1 [Example 122, (S,E)-2-(3-(1-(4-(dimethylamino)but-2-enoyl)-2,3-dihydro-1H-pyrrolo[2,3-b]pyridin-5-yl)phenyl)-N-(5-ethylthiazol-2-yl)propanamide]
31	2.6	COc1nc(-c2cccc([C@H](C)C(=O)Nc3ncc(C(F)(F)F)s3)c2)cnc1NC(=O)/C=C/CN(C)C [Example 109, (S,E)-4-(dimethylamino)-N-(3-methoxy-5-(3-(1-oxo-1-((5-(trifluoromethyl)thiazol-2-yl)amino)propan-2-yl)phenyl)pyrazin-2-yl)but-2-enamide]
74	17.4	C[C@H](C(=O)Nc1ncc(C(F)(F)F)s1)c1cccc(-c2cnc3c(c2)CCN3C(=O)/C=C/CN(C)C)c1 [Example 110, (S,E)-2-(3-(1-(4-(dimethylamino)but-2-enoyl)-2,3-dihydro-1H-pyrrolo[2,3-b]pyridin-5-yl)phenyl)-N-(5-(trifluoromethyl)thiazol-2-yl)propanamide]
51		C[C@H](C(=O)Nc1ncc(C(F)(F)F)s1)c1cccc(-c2cnc(NC(=O)/C=C/CN3CCCCC3)cn2)c1 [Example 120, (S,E)-N-(5-(3-(1-oxo-1-((5-(trifluoromethyl)thiazol-2-yl)amino)propan-2-yl)phenyl)pyrazin-2-yl)-4-(piperidin-1-yl)but-2-enamide]
100	52	CCc1cnc(NC(=O)C(CC)c2cccc(-c3cnc(NC(=O)/C=C/CN(C)C)c(C#N)c3)c2)s1 (centres unmarked) [Example 138, (E)-N-(3-cyano-5-(3-(1-((5-ethylthiazol-2-yl)amino)-1-oxobutan-2-yl)phenyl)pyridin-2-yl)-4-(dimethylamino)but-2-enamide]
48	10	CCc1cnc(NC(=O)[C@@H](C)c2cccc(-c3cnc(NC(=O)/C=C/CN4CCOCC4)c(C#N)c3)c2)s1 [Example 135, (S,E)-N-(3-cyano-5-(3-(1-((5-ethylthiazol-2-yl)amino)-1-oxopropan-2-yl)phenyl)pyridin-2-yl)-4-morpholinobut-2-enamide]
35	4.2	C[C@H](C(=O)Nc1ncc(C(F)(F)F)s1)c1cccc(-c2cnc(NC(=O)/C=C/CN(C)C)c(Cl)c2)c1 [Example 113, (S,E)-N-(3-chloro-5-(3-(1-oxo-1-((5-(trifluoromethyl)thiazol-2-yl)amino)propan-2-yl)phenyl)pyridin-2-yl)-4-(dimethylamino)but-2-enamide]
56	12	CCN(CC)C/C=C/C(=O)Nc1cnc(-c2cccc([C@H](C)C(=O)Nc3ncc(C(F)(F)F)s3)c2)cn1 [Example 114, (S,E)-4-(diethylamino)-N-(5-(3-(1-oxo-1-((5-(trifluoromethyl)thiazol-2-yl)amino)propan-2-yl)phenyl)pyrazin-2-yl)but-2-enamide]
